Values joined by “and” are separate entries in the source; they are usually repeats but may differ in a detail not shown here. Equal values may be shown once. “Also recorded” adds a separate entry of the source.
Assays:
[1] = molecular target: T1, hPARP-1 (Homo sapiens, UniProt P09874); experiment: hPARP-1 enzyme assay (NAD+ cycling reaction, resorufin fluorescence read-out); type: biochemical; conditions: for IC50: 0.1-50 µM, mean ± SD, two biological replicates; for inhibition at 10 µM: concentration of 10 µM; for decline in PARPi activity compared with compound 54: replacement of the fluoride group; for PARPi activity at the enzyme level compared to the OLP core structure phthalazin-1(2H)-one: own IC50 vs literature IC50 12 µM; for reduction in the PARPi activity compared with compound 57: modification at the thiomethyl group
T1 construct: purchased Bio-Techne (Minneapolis, MN, USA)
T1 sequence (P09874 whole entry): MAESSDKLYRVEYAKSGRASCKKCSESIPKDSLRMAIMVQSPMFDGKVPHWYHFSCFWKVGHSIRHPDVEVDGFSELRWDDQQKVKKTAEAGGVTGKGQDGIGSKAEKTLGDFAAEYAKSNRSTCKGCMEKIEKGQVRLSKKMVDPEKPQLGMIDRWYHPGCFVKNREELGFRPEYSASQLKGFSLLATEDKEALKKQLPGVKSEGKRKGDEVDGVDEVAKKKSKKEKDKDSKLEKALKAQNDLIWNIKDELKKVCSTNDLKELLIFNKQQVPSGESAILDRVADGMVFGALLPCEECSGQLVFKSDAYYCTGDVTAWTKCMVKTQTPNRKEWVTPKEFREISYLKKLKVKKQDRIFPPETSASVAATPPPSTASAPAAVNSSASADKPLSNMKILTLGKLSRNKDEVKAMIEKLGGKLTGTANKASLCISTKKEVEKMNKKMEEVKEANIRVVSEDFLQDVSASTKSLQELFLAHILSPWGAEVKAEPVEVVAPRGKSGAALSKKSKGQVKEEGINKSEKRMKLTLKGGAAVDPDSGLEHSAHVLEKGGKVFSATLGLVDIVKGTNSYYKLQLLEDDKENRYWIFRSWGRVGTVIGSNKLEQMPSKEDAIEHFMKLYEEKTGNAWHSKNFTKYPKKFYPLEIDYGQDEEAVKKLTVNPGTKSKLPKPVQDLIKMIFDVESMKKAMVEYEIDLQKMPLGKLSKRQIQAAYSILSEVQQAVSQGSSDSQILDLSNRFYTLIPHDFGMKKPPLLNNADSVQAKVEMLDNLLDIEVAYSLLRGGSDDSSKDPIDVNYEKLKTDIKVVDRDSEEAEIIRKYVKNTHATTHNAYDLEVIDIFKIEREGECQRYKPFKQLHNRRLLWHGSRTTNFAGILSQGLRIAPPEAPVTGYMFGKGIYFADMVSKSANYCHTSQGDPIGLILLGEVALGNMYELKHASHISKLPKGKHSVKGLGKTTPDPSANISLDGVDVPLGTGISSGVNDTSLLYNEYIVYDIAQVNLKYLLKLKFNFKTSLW
Protocol: The putative PARP inhibitors, which were pre-selected in the in silico study, were subsequently evaluated by using an optimized biochemical hPARP-1 enzyme assay. The experiment was performed in black half-area 96-well plates. For the PARP reaction, 12.5 µL of PARP reaction solution were added. The solution was composed of 0.5 µg deoxyribonucleic acid (DNA) sodium salt from calf thymus, 2 U of recombinant hPARP-1, and 1 µL of the compound of interest in PARP reaction buffer (50 mM TRIS and 2 mM MgCl2 in ddH2O, pH = 8). These test compounds’ working solutions were prepared from 20 mM DMSO stock solutions and diluted using PARP reaction buffer to reach 25× of the required final concentration to be tested. […] Afterwards, 12.5 µL of NAD^+ solution were added to all wells to reach a final NAD^+ concentration of 50 nM, and to start the enzyme reaction.
Besides PARP reaction wells, NAD^+ calibration wells were included to measure the linearity of the detection of NAD^+ concentrations. In each well, 12.5 µL of NAD^+ calibration solution were added. The solution was composed of 0.5 µg deoxyribonucleic acid (DNA) sodium salt from calf thymus in PARP reaction buffer. Finally, 12.5 µL of decreasing concentrations of NAD^+ solution were added to the calibration wells (final concentrations: 50, 40, 30, 20, 10, 0 nM).
Subsequently, the assay plate including both the PARP reaction and NAD^+ calibration wells was gently shaken and incubated at 25 °C in the dark for 90 min. After incubation, 25 µL of detection solution were added to each well. […] The assay plate was again gently shaken and incubated at 25 °C in the dark for 40 min.
Following the aforementioned protocol, the compounds that were predicted by the in silico study as putative hPARP-1 inhibitors were tested at two different concentrations (1 and 10 µM). […] The IC50s were calculated by using GraphPad Prism software and a non-linear four-parametric regression function.

[2] = tested on: MDA-MB-468 cells; experiment: cells; type: cell-based; conditions: for cytotoxic activity as a monotherapy against MDA-MB-468: CV assay
Protocol: (§1) Cells were seeded in 96-well cell culture plates and were allowed to adhere for 24 h in a humidified atmosphere with 5% CO2 at 37 °C. Afterward, cells were treated with the test items at several concentrations for 72 h. […] After finalization of the intended 72 h treatment, the treatment solutions were discarded, and the cells were washed once with PBS. Subsequently, the cells were fixed by incubation in 4% (v/v) paraformaldehyde in PBS for 15 min at room temperature (RT). The fixing solution was discarded, and the cells were allowed to dry at RT for 15 min. The cells were stained with 0.1% (w/v) crystal violet in PBS for 15 min at RT, then washed with ddH2O and dried overnight at RT. […] The obtained absorbance data were normalized based on the negative and positive controls representing 100% and 0% cell viability, respectively. IC50 values were calculated by using a four-parametric non-linear regression analysis in GraphPad Prism software.
(§2) Finally, cell viability was determined by using the CV assay, and IC50 values were calculated as mentioned above.

[3] = tested on: BT-474 cells; experiment: crystal violet (CV) cell viability assay, single and combined with TMZ; type: cell-based
Protocol: as §1, §2

[4] = molecular target: T2, hPARP-1 in BT-474 cells (Homo sapiens, UniProt P09874); experiment: fluorescence microscopy, competitive displacement of PARPi-FL; type: cell-based; conditions: BT-474, 72 h with 100 µM compound 57 or 1.56 µM OLP, then 250 nM PARPi-FL 20 min
T2 construct: endogenous in cells; host or cells: BT-474
T2 sequence (P09874 whole entry): as above
Protocol: For the determination of the interaction of the proposed PARPi and the PARP binding pocket inside the treated cells, a fluorescence microscopic inspection was performed. Using a green fluorescently labeled molecule named PARPi-FL that is characterized by the ability to occupy specifically the binding pocket of the PARP enzyme. Moreover, in case of its competitive replacement by PARPi molecules a reduction in its fluorescent signal is detectable. Thus, cells were seeded in 6-well plates and incubated in a humidified atmosphere with 5% CO2 for 24 h at 37 °C. […] Subsequently, the treatment solutions were discarded, and the cells were washed with PBS. […] Finally, cells were imaged by using the GFP channel of an EVOS™ FL Auto Imaging System (Thermo Fisher Scientific, Waltham, MA, USA).

[5] = tested on: HCC1937 cells; experiment: crystal violet (CV) cell viability assay, single and combined with TMZ; type: cell-based; conditions: Homo sapiens, HCC1937, 72 h; read-out: IC50 of TMZ, alone or combined
Protocol: as §1, §2

[6] = tested on: MCF-7 cells; experiment: as above; type: cell-based; conditions: Homo sapiens, MCF7, 72 h; read-out: IC50 of TMZ, alone or combined
Protocol: as §1, §2

[7] = tested on: 184B5 cells; experiment: as above; type: cell-based; conditions: Homo sapiens, 184B5, 72 h; read-out: IC50 of TMZ, alone or combined
Protocol: as §1, §2

COc1cccc(Nc2nc3ccccc3c(=O)[nH]2)c1 [Compound 18]
IC50 [1]: 23.5 ± 8.74 µM
inhibition at 10 µM [1]: > 50%

COc1ccc(C(=O)Nc2nc3c(c(=O)[nH]2)CCCC3)cc1 [Compound 21]
IC50 [1]: 14.9 ± 4.92 µM
inhibition at 10 µM [1]: > 50%
decline in PARPi activity compared with compound 54 [1]: at least three-fold

O=c1[nH]nc(CNc2ccc([N+](=O)[O-])cc2)c2ccccc12 [Compound 22]
IC50 [1]: 4.57 ± 4.89 µM
inhibition at 10 µM [1]: > 50%

O=C(Nc1nc2c(c(=O)[nH]1)CCCC2)c1ccc(Cl)cc1 [Compound 32]
decline in PARPi activity compared with compound 54 [1]: at least three-fold

Cc1ccc(C(=O)Nc2nc3c(c(=O)[nH]2)CCCC3)cc1 [Compound 34]
decline in PARPi activity compared with compound 54 [1]: at least three-fold

COc1ccc(NCc2nnc(O)c3ccccc23)cc1 [Compound 45]
IC50 [1]: 3.01 ± 1.19 µM
inhibition at 10 µM [1]: > 50%

O=C(Nc1nc2c(c(=O)[nH]1)CCCC2)c1ccc(F)cc1 [Compound 54]
IC50 [1]: 4.56 µM
inhibition at 10 µM [1]: > 50%
PARPi activity at the enzyme level compared to the OLP core structure phthalazin-1(2H)-one [1]: two-fold higher

O=c1[nH]nc(-c2ccccc2)c2ccccc12 [Compound 56]
IC50 [1]: 6.61 ± 2.09 µM
inhibition at 10 µM [1]: > 50%

CSc1nc2ccccc2c(=O)[nH]1 [Compound 57, 2-(methylthio)quinazolin-4(3H)-one]
cytotoxic activity as a monotherapy against MDA-MB-468 ([2]; 72 h): such an effect was not observed
synergistic improvement of the TMZ activity by co-treatment ([2]; co-treatment at IC10 (100 µM compound 57), 72 h): did not induce a synergistic improvement
IC50 [1]: 2.3 µM and 2.32 µM
inhibition at 10 µM [1]: > 50%
fold higher hPARP-1-inhibiting activity compared to core structure quinazolin-4(3H)-one ([1]; own IC50 vs literature IC50 5.8 µM): 2.5 fold
PARPi activity at the enzyme level compared to the OLP core structure phthalazin-1(2H)-one [1]: five-fold higher
IC10 (CV cytotoxicity assay) ([3]; BT-474 cells, 72 h): 100 µM
displacement of PARPi-FL from nuclear hPARP-1 (fluorescence) [4]: failed to reach the nuclei of BT-474 cells; also recorded: did not impact the fluorescent appearance of the stain

N#CCc1n[nH]c(=O)c2ccccc12 [Compound 58]
IC50 [1]: 4.86 ± 0.63 µM
inhibition at 10 µM [1]: > 50%

CSc1nc2ccccc2c(=O)n1C [Compound 62]
hPARP-1 inhibitor activity compared with compound 57 (SAR, in words) [1]: complete abolishment of hPARP-1 inhibitor activity
IC50 [1]: > 10 µM

CSc1nc2ccccc2c(=O)n1Cc1ccccc1 [Compound 63]
hPARP-1 inhibitor activity compared with compound 57 (SAR, in words) [1]: complete abolishment of hPARP-1 inhibitor activity
IC50 [1]: > 10 µM

COc1cc2nc(SC)[nH]c(=O)c2cc1OC [Compound 64]
hPARP-1 inhibitor activity compared with compound 57 (SAR, in words) [1]: dramatic decrease in activity
IC50 [1]: > 10 µM

CSc1nc2ccc([N+](=O)[O-])cc2c(=O)[nH]1 [Compound 65]
hPARP-1 inhibitor activity compared with compound 57 (SAR, in words) [1]: dramatic decrease in activity
IC50 [1]: > 10 µM

CSc1nc2cc([N+](=O)[O-])ccc2c(=O)[nH]1 [Compound 66]
hPARP-1 inhibitor activity compared with compound 57 (SAR, in words) [1]: dramatic decrease in activity
IC50 [1]: > 10 µM

C=CCSc1nc2ccccc2c(=O)[nH]1 [Compound 67]
IC50 [1]: > 10 µM
reduction in the PARPi activity compared with compound 57 [1]: at least four-fold

C#CCSc1nc2ccccc2c(=O)[nH]1 [Compound 68]
IC50 [1]: > 10 µM
reduction in the PARPi activity compared with compound 57 [1]: at least four-fold

O=c1[nH]c(SCCC(F)=C(F)F)nc2ccccc12 [Compound 69]
IC50 [1]: > 10 µM
reduction in the PARPi activity compared with compound 57 [1]: at least four-fold

O=C(c1cc(Cc2n[nH]c(=O)c3ccccc23)ccc1F)N1CCN(C(=O)C2CC2)CC1 [OLP, olaparib]
cytotoxic activity as a monotherapy against MDA-MB-468 ([2]; 72 h): good and selective cytotoxic activity
IC10 (CV cytotoxicity assay) ([2]; MDA-MB-468 cells, 72 h): 1.56 µM

Cn1nnc2c(C(N)=O)ncn2c1=O [TMZ, temozolomide]
IC50 ([2]; Homo sapiens, MDA-MB-468, 72 h, read-out: IC50 of TMZ, alone or combined): 2060 ± 790 µM
IC50 ([3]; Homo sapiens, BT-474, 72 h, read-out: IC50 of TMZ, alone or combined): 2210 ± 10 µM
IC50 [5]: 3740 ± 1500 µM
IC50 [6]: 3440 ± 1720 µM
IC50 [7]: 980 ± 820 µM
